Test results taken from publication PMC7408547, “Bivalent Inhibitor with Selectivity for Trimeric MMP-9 Amplifies Neutrophil Chemotaxis and Enables Functional Studies on MMP-9 Proteoforms” (Cells, 2020).

System: secretions of fMLF stimulated human granulocytes
Test: Gelatinolysis in secretions of fMLF stimulated human granulocytes
Format: biochemical
Conditions: neutrophil elastase inhibitor 20 µM; depending on the donor (n = 4)
Experimental: To determine the inhibition of gelatinolytic activity, we used a previously optimized gelatin degradation assay. Activated MMP-9, activated MMP-2, neutrophil elastase or supernatants of stimulated neutrophils, were incubated with different concentrations of inhibitors and incubated for 30 min at 37 °C. Next, dye-quenched gelatin (DQ™-gelatin, Invitrogen, Carlsbad, CA, USA) was added at a final concentration of 2.5 µg/mL and the increase in fluorescence over time was measured with the CLARIOstar microplate reader (BMG Labtech, Ortenberg, Germany). For other MMPs, the OmniMMP substrate peptide (Mca-PLGL-Dpa-AR-NH2, cat. no. BML-P126-0001, Enzo Life Sciences, Farmingdale, NY, USA) was used at a final concentration of 2.5 µg/mL. For ADAM17 the fluorogenic peptide Mca-PLAQAV-Dpa-RSSSR-NH2 (ES003, R & D systems, Minneapolis, MO, USA) and for neutrophil elastase the fluorogenic substrate MeOSuc-AAPV-AMC (cat. no. 324740, Merck Millipore, Darmstadt, Germany) were used. Proteolytic activity was determined by linear regression of the fluorescence curve and the percentage inhibition was calculated through comparison with the positive control (no inhibitors). When testing supernatants from human neutrophils, the assay was performed in the presence of 20 µM neutrophil elastase inhibitor (Elastase Inhibitor IV, Calbiochem, Darmstadt, Germany).
Neutrophils were isolated from fresh blood from healthy donors, via density gradient centrifugation as described. To obtain neutrophil degranulate, neutrophils were suspended in degranulation buffer (120 mM NaCl, 15 mM CaCl2, 20 mM Tris/HCl pH 7.5) at a concentration of 10^7 cells/mL and degranulation was induced by incubating neutrophils with N-formyl-methionyl-leucyl-phenylalanine (fMLF) (final concentration 0.5 µM) for 20 min at 37 °C as previously described. Next, the supernatant was collected by centrifugation. For fresh blood donations, all subjects gave written informed consent in accordance with the Declaration of Helsinki.

Cc1cccc(C(=O)n2nc(C#N)c3ccccc32)c1 [neutrophil elastase inhibitor, reference compound]
percentage of gelatinolytic activity inhibited: 84–97%
